Assay results taken from patent US10414739B2, “Compounds as inhibitors of the YAP/TAZ-TEAD interaction and their use in the treatment of malignant mesothelioma” (INVENTIVA, priority 2015, dated 2019).
Structures can show the parent of a compound that is named as a salt.

Target: T1, YAP-TEAD interaction (human YAP2-His6 (50-114) / human TEAD1-GST (209-426)) (Homo sapiens, UniProt P28347)
T1 construct: GST-TEAD1 (209-426) produced in E. coli; made in house; host or cells: E. coli
Experiment: YAP-TEAD AlphaLISA assay
Format: binding
Details: for Emax: 2 h, maximal % inhibition, read-out: Max Act.; for Emax / IC50: YAP-TEAD AlphaLISA; for IC50: 2 h equilibration at room temperature
Procedure: YAP-TEAD AlphaLISA Assay for IC50 Value Determination.
YAP-TEAD binding and inhibition was assessed by monitoring the engagement of YAP2 peptide (human YAP2-His6 (50-114) produced in E. coli) with TEAD (human TEAD1-GST (GST-TEAD1 (209-426) produced in E. coli) using the AlphaLisa technology (Perkin-Elmer). Specifically, in a 384 well (Axygen) 5 μl of compounds were dispensed in 100% DMSO following a semi log serial dilution, with a top concentration of […] (10 concentrations). A ‘3 partners solution’ was prepared by mixing AlphaScreen Glutathione Donor beads 15 μg/ml (PerkinElmer), Anti-6×His AlphaLisA Acceptor beads 15 μg/ml (PerkinElmer) and Human YAP2 9 nM in 100 mM NaCl, 25 mM Hepes, 0.1% BSA, 0.5% NoNidet®P40 buffer. In the 384 assay plate (Proxiplate, Perkin-Elmer)) 2 μl of compound at each concentration, 6 μl of buffer, 6 μl of hTEAD1-GST 9 nM and 6 μl of ‘3 partner solution’ were mixed. After 2 h equilibration at room temperature in the dark the plates were read on an Envision instrument (Excitation @ 680 nm/Emission @ 570 nm, Perkin Elmer).
Results were expressed as % inhibition=100×((HighControl−Cpd)/(HighControl−LowControl)), were High control is the maximum response obtained with all components and Low control is the basal response obtained with all components without GST-Tead1.
Cpd is the response obtained for test compounds.
IC50 (half maximal inhibitory concentration) was determined by fitting the concentration response curves using a 3-parameter curve fit equation and determining concentration corresponding to 50% inhibition.

T1 sequence (P28347 209-426): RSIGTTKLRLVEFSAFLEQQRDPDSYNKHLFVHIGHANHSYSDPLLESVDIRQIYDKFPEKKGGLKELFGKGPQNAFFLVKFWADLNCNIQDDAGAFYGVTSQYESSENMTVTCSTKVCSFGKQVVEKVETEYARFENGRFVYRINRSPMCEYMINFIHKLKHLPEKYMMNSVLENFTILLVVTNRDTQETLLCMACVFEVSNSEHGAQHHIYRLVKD

Row | SMILES | Emax [%] | IC50 [nM] | inhibition at 1000 µM (at 1 mM concentration) [%]
1 | COc1cc(/C=N/N(C)C2=NS(=O)(=O)c3ccc(C)cc32)ccc1O [Example 25, 2-methoxy-4-[(E)-[methyl-(5-methyl-1,1-dioxo-1,2-benzothiazol-3-yl)hydrazono]methyl]phenol] | 90 | 568 | –
2 | CCN(/N=C/c1ccc(O)c(OC)c1)C1=NS(=O)(=O)c2ccccc21 [Example 3, 4-[(E)-[(1,1-dioxo-1,2-benzothiazol-3-yl)-ethyl-hydrazono]methyl]-2-methoxy-phenol] | 88 | 5000 | –
3 | COCCN(/N=C/c1ccc(O)c(OC)c1)C1=NS(=O)(=O)c2c(OC)cc(OC)cc21 [Example 19, 4-[(E)-[(5,7-dimethoxy-1,1-dioxo-1,2-benzothiazol-3-yl)-(2-methoxyethyl) hydrazono]methyl]-2-methoxy-phenol] | 92 | 626 | –
4 | COc1ccc2c(c1)C(N(CCO)/N=C/c1ccc(O)c(OC)c1)=NS2(=O)=O [Example 11, 4-[(E)-[2-hydroxyethyl-(5-methoxy-1,1-dioxo-1,2-benzothiazol-3-yl) hydrazono]methyl]-2-methoxy-phenol] | 94 | 475 | –
5 | COc1cc(/C=N/N(CCN2CCOCC2)C2=NS(=O)(=O)c3c(OC)cccc32)ccc1O [Example 23, 2-methoxy-4-[(E)-[(7-methoxy-1,1-dioxo-1,2-benzothiazol-3-yl)-(2-morpholinoethyl)hydrazono]methyl]phenol hydrochloride] | 99 | 305 | –
6 | COc1cc(/C=N/N(C2=NS(=O)(=O)c3ccccc32)c2ccc(C(=O)O)cc2)ccc1O [Example 38, 4-[(1,1-dioxo-1,2-benzothiazol-3-yl)-[(E)-(4-hydroxy-3-methoxy-phenyl)methyleneamino]amino]benzoic acid] | 99 | 105000 | –
7 | COc1cc(OC)c2c(c1)C(N(CCO)/N=C/c1ccc(O)c(OC)c1)=NS2(=O)=O [Example 17, 4-[(E)-[(5,7-dimethoxy-1,1-dioxo-1,2-benzothiazol-3-yl)-(2-hydroxyethyl) hydrazono]methyl]-2-methoxy-phenol] | 90 | 150 | –
8 | COc1ccc2c(c1)C(N(C)/N=C/c1ccc(O)c(OC)c1)=NS2(=O)=O [Example 35, 2-methoxy-4-[(E)-[(5-methoxy-1,1-dioxo-1,2-benzothiazol-3-yl)-methyl-hydrazono]methyl]phenol] | 77 | 354 | –
9 | COCCN(/N=C/c1ccc(O)c(OC)c1)C1=NS(=O)(=O)c2c(OC)cc(C)cc21 [Example 30, 2-methoxy-4-[(E)-[2-methoxyethyl-(7-methoxy-5-methyl-1,1-dioxo-1,2-benzothiazol-3-yl)hydrazono]methyl]phenol] | 90 | 878 | –
10 | COc1cc(/C=N/N(CCCO)C2=NS(=O)(=O)c3ccccc32)ccc1O [Example 5, 4-[(E)-[(1,1-dioxo-1,2-benzothiazol-3-yl)-(3-hydroxypropyl)hydrazono]-methyl]-2-methoxy-phenol] | 88 | 5500 | –
11 | COc1cc(/C=N/N(C)C2=NS(=O)(=O)c3cc(C)ccc32)ccc1O [Example 33, 2-methoxy-4-[(E)-[methyl-(6-methyl-1,1-dioxo-1,2-benzothiazol-3-yl)hydrazono]methyl]phenol] | 90 | 766 | –
12 | COc1cc(/C=N/N(C)C2=NS(=O)(=O)c3cc(F)ccc32)ccc1O [Example 41, 4-[(E)-[(6-fluoro-1,1-dioxo-1,2-benzothiazol-3-yl)-methyl-hydrazono]-methyl]-2-methoxy-phenol] | 85 | 5740 | –
13 | COc1ccc(/C=N/N(C)C2=NS(=O)(=O)c3ccccc32)cc1OC [N-[(E)-(3,4-dimethoxyphenyl)methyleneamino]-N-methyl-1,1-dioxo-1,2-benzothiazol-3-amine, reference compound] | – | – | 30
14 | COc1ccc2c(c1)C(N(CCCO)/N=C/c1ccc(O)c(OC)c1)=NS2(=O)=O [Example 14, 4-[(E)-[3-hydroxypropyl-(5-methoxy-1,1-dioxo-1,2-benzothiazol-3-yl) hydrazono]methyl]-2-methoxy-phenol] | 90 | 1630 | –
15 | COCCN(/N=C/c1ccc(O)c(OC)c1)C1=NS(=O)(=O)c2c(OC)cccc21 [Example 24, 2-methoxy-4-[(E)-[(7-methoxy-1,1-dioxo-1,2-benzothiazol-3-yl)-(2-methoxyethyl)hydrazono]methyl]phenol] | 92 | 902 | –
16 | COc1ccc2c(c1)S(=O)(=O)N=C2N(C)/N=C/c1ccc(O)c(OC)c1 [Example 40, 2-methoxy-4-[(E)-[(6-methoxy-1,1-dioxo-1,2-benzothiazol-3-yl)-methyl hydrazono]methyl]phenol] | 91 | 16200 | –

The remaining compounds from weak to strong by IC50, led by results:

Row | Emax [%] | IC50 [nM] | inhibition at 1000 µM (at 1 mM concentration) [%] | SMILES
17 | 74 | 70800 | – | COc1cc(/C=N/N(CC(F)(F)F)C2=NS(=O)(=O)c3ccccc32)ccc1O [Example 37, 4-[(E)-[(1,1-dioxo-1,2-benzothiazol-3-yl)-(2,2,2-trifluoroethyl)-hydrazono]methyl]-2-methoxy-phenol]
18 | 95 | 7040 | – | COc1cc(/C=N/N(CCCN(C)C)C2=NS(=O)(=O)c3ccccc32)ccc1O [Example 6, 4-[(E)-[3-(dimethylamino)propyl-(1,1-dioxo-1,2-benzothiazol-3-yl)hydrazono]methyl]-2-methoxy-phenol hydrochloride]
19 | 92 | 5000 | – | COCCCN(/N=C/c1ccc(O)c(OC)c1)C1=NS(=O)(=O)c2ccccc21 [Example 10]
20 | 94 | 2650 | – | COCCN(/N=C/c1ccc(O)c(OC)c1)C1=NS(=O)(=O)c2ccc(C)cc21 [Example 28, 2-methoxy-4-[(E)-[2-methoxyethyl-(5-methyl-1,1-dioxo-1,2-benzothiazol-3-yl) hydrazono]methyl]phenol]
21 | 84 | 2470 | – | COc1cc(/C=N/N(C)C2=NS(=O)(=O)c3ccc(F)cc32)ccc1O [Example 42, 4-[(E)-[(5-fluoro-1,1-dioxo-1,2-benzothiazol-3-yl)-methyl-hydrazono]-methyl]-2-methoxy-phenol]
22 | 94 | 1100 | – | COc1cc(/C=N/N(CCC(=O)O)C2=NS(=O)(=O)c3ccccc32)ccc1O [Example 8, 3-[(1,1-dioxo-1,2-benzothiazol-3-yl)-[(E)-(4-hydroxy-3-methoxy-phenyl)methyleneamino]amino]propanoic acid]
23 | 97 | 615 | – | COc1cc(/C=N/N(CCN2CCOCC2)C2=NS(=O)(=O)c3ccccc32)ccc1O [Example 4, 4-[(E)-[(1,1-dioxo-1,2-benzothiazol-3-yl)-(2-morpholinoethyl)hydrazono]methyl]-2-methoxy-phenol hydrochloride]
24 | 95 | 399 | – | COc1cc(/C=N/N(CCN2CCOCC2)C2=NS(=O)(=O)c3ccc(C)cc32)ccc1O [Example 26, 2-methoxy-4-[(E)-[(5-methyl-1,1-dioxo-1,2-benzothiazol-3-yl)-(2-morpholinoethyl)hydrazono]methyl]phenol hydrochloride]
25 | 95 | 139 | – | COc1cc(/C=N/N(CCN2CCOCC2)C2=NS(=O)(=O)c3c(OC)cc(C)cc32)ccc1O [Example 32, 2-methoxy-4-[(E)-[(7-methoxy-5-methyl-1,1-dioxo-1,2-benzothiazol-3-yl)-(2-morpholinoethyl)hydrazono]methyl]phenol hydrochloride]
26 | 91 | 130 | – | COc1cc(/C=N/N(CCO)C2=NS(=O)(=O)c3c(OC)cc(C)cc32)ccc1O [Example 29, 4-[(E)-[2-hydroxyethyl-(7-methoxy-5-methy-1,1-dioxo-1,2-benzothiazol-3-yl) hydrazono]methyl]-2-methoxy-phenol]
27 | 86 | 95 | – | COc1cc(OC)c2c(c1)C(N(C)/N=C/c1ccc(O)c(OC)c1)=NS2(=O)=O [Example 16, 4-[(E)-[(5,7-dimethoxy-1,1-dioxo-1,2-benzothiazol-3-yl)-methyl-hydrazono]methyl]-2-methoxy-phenol]
28 | 97 | 84 | – | COc1cc(OC)c2c(c1)C(N(CCN1CCOCC1)/N=C/c1ccc(O)c(OC)c1)=NS2(=O)=O [Example 18, 4-[(E)-[(5,7-dimethoxy-1,1-dioxo-1,2-benzothiazol-3-yl)-(2-morpholino-ethyl)hydrazono]methyl]-2-methoxy-phenol hydrochloride]
29 | 97 | 83 | – | COc1cc(/C=N/N(CCO)C2=NS(=O)(=O)c3c(OC)cccc32)ccc1O [Example 22, 4-[(E)-[2-hydroxyethyl-(7-methoxy-1,1-dioxo-1,2-benzothiazol-3-yl) hydrazono]methyl]-2-methoxy-phenol]
